{"source": "paper PMC8305532", "about": "“Bufadienolides from the Skin Secretions of the Neotropical Toad Rhinella alata (Anura: Bufonidae): Antiprotozoal Activity against Trypanosoma cruzi” (Molecules, 2021)", "key": {"T. cruzi trypomastigotes [1]": {"tested_on": "T. cruzi trypomastigotes", "assay": "Antiprotozoal activity against T. cruzi (β-galactosidase reporter strain Tulahuen clone C4, in infected Vero cells)", "type": "cell-based", "conditions": "Trypanosoma cruzi, 120 h, read-out: IC50 T. cruzi", "procedure": "The evaluation of the antiprotozoal activity against trypanosomes was carried out using the recombinant strain Tulahuen clone C4 of T. cruzi trypomastigotes (ATCC, Manassas, VA, USA). This strain expresses the β-galactosidase enzyme used as a reporter to assess the viability of the trypanosomatid. The parasites were maintained at 37 °C under a 5% CO2 atmosphere in RPMI-1640 culture medium with L-glutamine, 4-(2-Hydroxyethyl)-piperazine-1-ethanesulfonic acid (HEPES) buffer, NaHCO3, 10% FBS, and 0.05% gentamicin (50 mg/mL) as supplements. Vero cells were cultured for 24 h, and one day prior to the experiment, the cells were infected with trypomastigotes. After additional 24 h of infection, bufadienolides were dissolved in DMSO and tested at four different concentrations by duplicate for five days. Benznidazole was used as the positive control. To determine antitrypanosomal activity, 25 µL of chlorophenol-red-β-D-galactopyranoside (Roche Applied Science) (900 µM) were added to each well and allowed to react with the β-galactosidase of the remaining living parasites for 4.5 h. Absorbance was calculated at 570 nm using a microtiter plate reader (Sinergy HT, BioTek Instruments Inc, Winooski, VT, USA).\n(§1) All antitrypanosomal and anticancer assays represent independent analysis. The data are presented as the inhibitory concentration (IC50) ± standard error (SE). The statistical analysis for the IC50 values was carried out employing the Data Analysis complement Wizard of Excel 2000 by adjusting the dose-response curve to a sigmoidal model (Microsoft, Seattle, WA, USA)."}, "Vero cells": {"tested_on": "Vero cells", "assay": "Mammalian cytotoxicity, MTT assay", "type": "cell-based, monkey", "conditions": "Primates, 120 h, read-out: IC50 Vero", "procedure": "For cytotoxicity assays, Vero cells were obtained from the American Type Culture Collection (ATCC, Manassas, VA, USA) and cultivated in 96-well plates at 37 °C under a 5% CO2 atmosphere, using RPMI-1640 medium (Sigma-Aldrich, Saint Louis, MO, USA) sterilized with 0.05% gentamicin (50 mg/mL) and supplemented with 10% FBS (fetal bovine serum; Gibco, Invitrogen, Carlsbad, CA, USA). Vero cells were allowed to adhere for 24 h prior to incubation for five days with the samples. During the treatment, DMSO was used as negative control, and samples were assayed at four different concentrations. After incubation, MTT (3-(4,5-di-methyl-thiazol-2-yl)-2,5-di-phenyl-tetra-zolium bromide) was added to each well, and absorbance was determined 4 h later at 570 nm using a color plate reader. Cytotoxicity was evaluated colorimetrically by calculating the ability of the remnant living Vero cells to reduce the pale yellow MTT into the black-purple formazan product, as described earlier. All bioassays were performed in duplicate and the IC50 values were determined employing the Data Analysis complement Wizard of Excel 2000 (Microsoft, Seattle, WA, USA)."}, "MCF-7": {"tested_on": "MCF-7", "assay": "Anticancer assay (SRB), MCF-7", "type": "cell-based", "conditions": "MCF7, human breast cancer line, 48 h, IC50 ± standard error", "procedure": "(§2) MCF-7, NCI-H460, and SF-268 cancer cells lines were obtained from the American Type Culture Collection (ATCC, Manassas, VA, USA) and cultivated in 96-well plates at 37 °C under a 5% CO2 atmosphere using RPMI-1640 medium (Sigma-Aldrich, USA) sterilized with 0.05% gentamicin (50 mg/mL), supplemented with 10% FBS (fetal bovine serum; Gibco, Invitrogen, Carlsbad, CA, USA), and allowed to adhere for 24 h. After incubation, cancer cells were treated with bufadienolides dissolved in DMSO at five different concentrations and analyzed by duplicate for 48 h. RPMI without cells was used as color control and doxorubicin was used as inhibition control. After treatment, cells were fixed with 25% tricholoroacetic acid (TCA) for 60 min, air dried, and stained with sulforhodamine-B (SRB). Washes with acetic acid at 1% were carried out to eliminate excess of SRB. Tris was added to dissolve the bound SRB. The plate was shaken and absorbance was read at 515 nm using a color plate reader.\nas §1"}, "NCI-H460": {"tested_on": "NCI-H460", "assay": "Anticancer assay (SRB), NCI-H460", "type": "cell-based", "conditions": "human lung cancer line, 48 h, IC50 ± standard error", "procedure": "as §2, §1"}, "SF-268": {"tested_on": "SF-268", "assay": "Anticancer assay (SRB), SF-268", "type": "cell-based", "conditions": "human central nervous system cancer line, 48 h, IC50 ± standard error", "procedure": "as §2, §1"}, "[2]": {"tested_on": "(Na+-K+) ATPase from T. cruzi", "parameters": "method as in PMID 16797482", "conditions": "cloned and characterized enzyme; cited from earlier work"}, "T. cruzi trypomastigotes [3]": {"tested_on": "T. cruzi trypomastigotes", "conditions": "cited from earlier work"}, "liver cancer cells": {"tested_on": "liver cancer cells", "parameters": "method as in PMID 20839128", "conditions": "concentration at which growth inhibition was induced; cited from earlier work"}, "[4]": {"conditions": "trypomastigotes, five days treatment, IC50 ± standard error"}, "[5]": {"conditions": "epithelial cells from monkey kidney (ATCC), five days incubation, MTT, IC50 ± standard error"}}, "note": "Like-named read-outs stand apart in the source and are kept apart here."}
{"smiles": "O=C(Cn1ccnc1[N+](=O)[O-])NCc1ccccc1", "note": "[benznidazole, reference compound]", "values": [{"measurement": "IC50", "setting": "T. cruzi trypomastigotes [1]; [4]", "result": "2730 ± 160", "unit": "nM"}]}
{"smiles": "COc1cccc2c1C(=O)c1c(O)c3c(c(O)c1C2=O)C[C@@](O)(C(=O)CO)C[C@@H]3O[C@H]1C[C@H](N)[C@H](O)[C@H](C)O1", "note": "[doxorubicin, reference compound]", "values": [{"measurement": "IC50", "setting": "Vero cells; [5]", "result": "230 ± 40", "unit": "nM"}, {"measurement": "IC50", "setting": "MCF-7", "result": "76 ± 3.01", "unit": "nM"}, {"measurement": "IC50", "setting": "NCI-H460", "result": "59 ± 5.06", "unit": "nM"}, {"measurement": "IC50", "setting": "SF-268", "result": "610 ± 57", "unit": "nM"}]}
{"smiles": "CC(=O)O[C@H]1[C@H]2O[C@]23[C@@H]2CC[C@@H]4C[C@@H](OC(=O)CCCCC(=O)NC(CCCNC(=N)N)C(=O)O)CC[C@]4(C)[C@H]2CC[C@]3(C)[C@H]1c1ccc(=O)oc1", "note": "(some centres unmarked) [Compound 7, Cinobufagin-3-adipoyl-arginine ester]", "values": [{"measurement": "IC50", "setting": "T. cruzi trypomastigotes [1]", "result": "16700 ± 2930", "unit": "nM"}, {"measurement": "IC50", "setting": "Vero cells", "result": "3600 ± 1640", "unit": "nM"}]}
{"smiles": "C[C@@H]1O[C@@H](O[C@H]2C[C@@H](O)[C@]3(CO)[C@H]4[C@H](O)C[C@]5(C)[C@@H](C6=CC(=O)OC6)CC[C@]5(O)[C@@H]4CC[C@]3(O)C2)[C@H](O)[C@H](O)[C@H]1O", "note": "[ouabain]", "values": [{"measurement": "inhibition of enzymatic activity of T. cruzi (Na+-K+) ATPase", "setting": "[2]", "result": "not inhibited"}]}
{"smiles": "C[C@]12CC[C@H](OC(=O)CCCCCCC(=O)NC(CCCNC(=N)N)C(=O)O)CC1CCC1C2CC[C@]2(C)[C@@H](c3ccc(=O)oc3)[C@@H](O)C[C@]12O", "note": "(stereo partly drawn) [Compound 5, 16β-hydroxy-desacetyl-bufotalin-3-suberoyl-arginine ester]", "values": [{"measurement": "IC50", "setting": "T. cruzi trypomastigotes [1]", "result": "6900 ± 950", "unit": "nM"}, {"measurement": "IC50", "setting": "Vero cells", "result": "810 ± 350", "unit": "nM"}]}
{"smiles": "CC(=O)O[C@H]1[C@H]2O[C@]23[C@@H]2CC[C@@H]4C[C@@H](OC(=O)CCCCCCC(=O)NC(CCCNC(=N)N)C(=O)O)CC[C@]4(C)[C@H]2CC[C@]3(C)[C@H]1c1ccc(=O)oc1", "note": "(some centres unmarked) [Compound 9, Cinobufagin-3-suberoyl-arginine ester]", "values": [{"measurement": "IC50", "setting": "T. cruzi trypomastigotes [1]", "result": "19000 ± 5730", "unit": "nM"}, {"measurement": "IC50", "setting": "Vero cells", "result": "250 ± 80", "unit": "nM"}]}
{"smiles": "CC(=O)O[C@H]1[C@H]2O[C@]23[C@@H]2CC[C@@H]4C[C@@H](O)CC[C@]4(C)[C@H]2CC[C@]3(C)[C@H]1c1ccc(=O)oc1", "note": "[Compound 10, Cinobufagin]", "values": [{"measurement": "IC50", "setting": "T. cruzi trypomastigotes [1]; [4]", "result": "29000 ± 2570", "unit": "nM"}, {"measurement": "IC50", "setting": "Vero cells; [5]", "result": "54100 ± 4730", "unit": "nM"}, {"measurement": "IC50", "setting": "MCF-7", "result": "9 ± 0.01", "unit": "nM"}, {"measurement": "IC50", "setting": "NCI-H460", "result": "14 ± 0.01", "unit": "nM"}, {"measurement": "IC50", "setting": "SF-268", "result": 4680, "unit": "nM"}]}
{"smiles": "CC(=O)O[C@H]1[C@H]2O[C@]23[C@@H]2CC[C@@H]4C[C@@H](OC(=O)CCCCCC(=O)NC(CCCNC(=N)N)C(=O)O)CC[C@]4(C)[C@H]2CC[C@]3(C)[C@H]1c1ccc(=O)oc1", "note": "(some centres unmarked) [Compound 8, Cinobufagin-3-pimeloyl-arginine ester]", "values": [{"measurement": "IC50", "setting": "T. cruzi trypomastigotes [1]", "result": "14700 ± 1800", "unit": "nM"}, {"measurement": "IC50", "setting": "Vero cells", "result": "720 ± 310", "unit": "nM"}]}
{"smiles": "CC12CCC(OC(=O)CCCCC(=O)NC(CCCNC(=N)N)C(=O)O)CC1CCC1C2CCC2(C)C(c3ccc(=O)oc3)C(O)CC12O", "note": "(stereo not drawn) [Compound 1, 16β-hydroxy-desacetyl-bufotalin-3-adipoyl-arginine ester]", "values": [{"measurement": "IC50", "setting": "T. cruzi trypomastigotes [1]", "result": "8000 ± 750", "unit": "nM"}, {"measurement": "IC50", "setting": "Vero cells", "result": "1890 ± 630", "unit": "nM"}]}
{"smiles": "CC(=O)O[C@H]1C[C@]2(O)[C@@H]3CC[C@@H]4C[C@@H](O)CC[C@]4(C)[C@H]3CC[C@]2(C)[C@H]1c1ccc(=O)oc1", "note": "[Compound 2, Bufotalin]", "values": [{"measurement": "IC50", "setting": "T. cruzi trypomastigotes [1]; [4]", "result": "19600 ± 3380", "unit": "nM"}, {"measurement": "IC50", "setting": "Vero cells; [5]", "result": "46000 ± 6290", "unit": "nM"}, {"measurement": "IC50", "setting": "MCF-7", "result": "94 ± 0.03", "unit": "nM"}, {"measurement": "IC50", "setting": "NCI-H460", "result": "229 ± 0.08", "unit": "nM"}, {"measurement": "IC50", "setting": "SF-268", "result": 20500, "unit": "nM"}]}
{"smiles": "CC(=O)O[C@H]1C[C@]2(O)[C@@H]3CC[C@@H]4C[C@@H](OC(=O)CCCCCCC(=O)NC(CCCNC(=N)N)C(=O)O)CC[C@]4(C)[C@H]3CC[C@]2(C)[C@H]1c1ccc(=O)oc1", "note": "(some centres unmarked) [Compound 6, Bufotalin-3-suberoyl-arginine ester]", "values": [{"measurement": "IC50", "setting": "T. cruzi trypomastigotes [1]", "result": "4900 ± 1000", "unit": "nM"}, {"measurement": "IC50", "setting": "Vero cells", "result": "340 ± 200", "unit": "nM"}]}
{"smiles": "C[C@]12CC[C@H](O)C[C@@]1(O)CC[C@@H]1[C@@H]2CC[C@]2(C)[C@@H](c3ccc(=O)oc3)CC[C@]12O", "note": "[telocinobufagin]", "values": [{"measurement": "IC50 against T. cruzi trypomastigotes", "setting": "T. cruzi trypomastigotes [3]", "result": "> 200", "unit": "µg/mL"}]}
{"smiles": "C[C@]12CC[C@H](OC(=O)CCCCCC(=O)NC(CCCNC(=N)N)C(=O)O)CC1CCC1C2CC[C@]2(C)[C@@H](c3ccc(=O)oc3)[C@@H](O)C[C@]12O", "note": "(stereo partly drawn) [Compound 3, 16β-hydroxy-desacetyl-bufotalin-3-pimeloyl-arginine ester]", "values": [{"measurement": "IC50", "setting": "T. cruzi trypomastigotes [1]", "result": "8700 ± 1250", "unit": "nM"}, {"measurement": "IC50", "setting": "Vero cells", "result": "240 ± 200", "unit": "nM"}]}
{"smiles": "CC(=O)O[C@H]1C[C@]2(O)[C@@H]3CC[C@@H]4C[C@@H](OC(=O)CCCCCC(=O)NC(CCCNC(=N)N)C(=O)O)CC[C@]4(C)[C@H]3CC[C@]2(C)[C@H]1c1ccc(=O)oc1", "note": "(some centres unmarked) [Compound 4, Bufotalin-3-pimeloyl-arginine ester]", "values": [{"measurement": "IC50", "setting": "T. cruzi trypomastigotes [1]", "result": "4600 ± 1750", "unit": "nM"}, {"measurement": "IC50", "setting": "Vero cells", "result": "170 ± 90", "unit": "nM"}, {"measurement": "growth inhibition against liver cancer cells", "setting": "liver cancer cells", "result": 7.24, "unit": "µM"}]}
{"smiles": "C[C@]12CC[C@H]3[C@@H](CC[C@]4(O)C[C@@H](O)CC[C@]34C=O)[C@@]1(O)CC[C@@H]2c1ccc(=O)oc1", "note": "[hellebrigenin]", "values": [{"measurement": "IC50 against T. cruzi trypomastigotes", "setting": "T. cruzi trypomastigotes [3]; trypomastigotes, ref Tempone et al. (2008) [13]", "result": 91.7, "unit": "µg/mL"}]}
